Results on 23 compounds are retold here after patent US20230045421A1 (priority 2018, published 2023).

The first experiment deals with HBV rcDNA. The experiment in a line: HepDE19 assay with bDNA quantitation of HBV rcDNA. The experiment is classed as cell-based, hepatitis B virus. Conditions: HepDE19 assay, inhibition of formation of rcDNA; read-out: DE-19bDNA EC50. A digest of the protocol:
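Compounds, top concentration 25 μM in 8-point duplicate series, were applied to Tet-free HepDE19 cultures for 7 days. Branched-DNA quantitation of HBV rcDNA against untreated wells gave EC50 and EC90 by 4-parameter fit. Viability (CC50) came from ATP luminescence on parallel plates incubated 4 days.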
For orientation: EC50 means the concentration that produces a half-maximal response. Consider `CC(c1c[nH]c(=O)c2ccccc12)N(C(=O)Nc1ccc(F)c(Cl)c1)C1CC1` (single isomer, unassigned) [Compound 67, 3-(3-Chloro-4-fluorophenyl)-1-cyclopropyl-1-(1-(1-oxo-1,2-dihydroisoquinolin-4-yl)ethyl)urea], for which the EC50 stood at 7.9 µM. As for `CC(c1cnc(N)c2ccccc12)N(C)C(=O)Nc1ccc(F)c(Cl)c1` (single isomer, unassigned) [Compound 238, 1-(1-(1-Aminoisoquinolin-4-yl)ethyl)-3-(3-chloro-4-fluorophenyl)-1-methylurea], the EC50 is 3.4 µM.

Consider `CC(c1c[nH]c(=O)c2ccccc12)N(CCC#N)C(=O)Nc1ccc(F)c(Cl)c1` (single isomer, unassigned) [Compound 113, 3-(3-Chloro-4-fluorophenyl)-1-(2-cyanoethyl)-1-(1-(1-oxo-1,2-dihydroisoquinolin-4-yl)ethyl)urea], for which the EC50 is 0.06 µM. On the same count and under the same terms, the result for `CC(c1cn(Cc2c[nH]nn2)c(=O)c2ccccc12)N(C)C(=O)Nc1ccc(F)c(Cl)c1` (single isomer, unassigned) [Compound 277, 1-(1-(2-((1H-1,2,3-Triazol-4-yl)methyl)-1-oxo-1,2-dihydroisoquinolin-4-yl)ethyl)-3-(3-chloro-4-fluorophenyl)-1-methylurea] reads 0.79 µM; that for `CC(c1c[nH]c(=O)c2ccc(Cl)cc12)N(C)C(=O)Nc1ccc(F)c(Cl)c1` (single isomer, unassigned) [Compound 172, 1-(1-(6-Chloro-1-oxo-1,2-dihydroisoquinolin-4-yl)ethyl)-3-(3-chloro-4-fluorophenyl)-1-methylurea], 0.12 µM; that for `CC(C)CN(C(=O)Nc1ccc(F)c(Cl)c1)C(C)c1c[nH]c(=O)c2cnccc12` (single isomer, unassigned) [Compound 254, 3-(3-Chloro-4-fluorophenyl)-1-isobutyl-1-(1-(1-oxo-1,2-dihydro-2,7-naphthyridin-4-yl)ethyl)urea], 0.016 µM. Same read-out and setting: in the case of `CC(c1c[nH]c(=O)c2ccccc12)N(CCC(=O)N(C)C)C(=O)Nc1ccc(F)c(Cl)c1` (single isomer, unassigned) [Compound 105, 3-(3-(3-Chloro-4-fluorophenyl)-1-(1-(1-oxo-1,2-dihydroisoquinolin-4-yl)ethyl)ureido)-N,N-dimethylpropanamide] it was 3.4 µM.

The same experiment, now with this note: HepDE19 assay, inhibition of formation of relaxed circular DNA (rcDNA), bDNA quantitation; read-out: DE-19bDNA EC50.
For the compound `CC(c1c[nH]c(=O)c2cc(F)c(F)cc12)N(C)C(=O)Nc1ccc2cc[nH]c2c1` (single isomer, unassigned) [Compound 485, 1-(1-(6,7-Difluoro-1-oxo-1,2-dihydroisoquinolin-4-yl)ethyl)-3-(1H-indol-6-yl)-1-methylurea], the EC50 amounted to 9.9 µM. Still for that read-out and setting: in the case of `CC(c1cnc(C(=O)N(C)C)c2ccccc12)N(C)C(=O)Nc1ccc(F)c(Cl)c1` (single isomer, unassigned) [Compound 318, 4-(1-(3-(3-Chloro-4-fluorophenyl)-1-methylureido)ethyl)-N,N-dimethylisoquinoline-1-carboxamide] it was 24 µM; in that of `CC(c1c[nH]c(=O)c2ccccc12)N(Cc1cscn1)C(=O)Nc1ccc(F)c(Cl)c1` (single isomer, unassigned) [Compound 312, 3-(3-Chloro-4-fluorophenyl)-1-(1-(1-oxo-1,2-dihydroisoquinolin-4-yl)ethyl)-1-(thiazol-4-ylmethyl)urea], 4.6 µM; in that of `CC(c1c[nH]c(=O)c2c(F)cccc12)N(C)C(=O)Nc1ccc(F)c(Cl)c1` (single isomer, unassigned) [Compound 356, 3-(3-Chloro-4-fluorophenyl)-1-(1-(8-fluoro-1-oxo-1,2-dihydroisoquinolin-4-yl)ethyl)-1-methylurea], 1.9 µM. On the same count and under the same terms, the result for `CC(c1cnc(-n2ccnn2)c2ccccc12)N(C)C(=O)Nc1ccc(F)c(Cl)c1` (single isomer, unassigned) [Compound 424, 1-(1-(1-(1H-1,2,3-Triazol-1-yl)isoquinolin-4-yl)ethyl)-3-(3-chloro-4-fluorophenyl)-1-methylurea] reads 6.4 µM; that for `Cc1ncc(C(C)N(C)C(=O)Nc2ccc(F)c(Cl)c2)c2ccccc12` (single isomer, unassigned) [Compound 353, 3-(3-Chloro-4-fluorophenyl)-1-methyl-1-(1-(1-methylisoquinolin-4-yl)ethyl)urea], 0.19 µM.

The experiment is the same for the next values; noted with them: Hepatitis B virus, HepDE19, HepDE19 assay, inhibition of formation of rcDNA; read-out: DE-19bDNA EC50.
With `CC(c1c[nH]c(=O)c2ccccc12)N(CC1CCOC1)C(=O)Nc1ccc(F)c(Cl)c1` (centres unmarked) [Compound 165], the EC50 was 1.4 µM. Same read-out and setting: in the case of `CCN(Cc1cn(C)c(=O)c2ccccc12)C(=O)Nc1ccc(F)c(Cl)c1` [Compound 18, 3-(3-Chloro-4-fluorophenyl)-1-ethyl-1-((2-methyl-1-oxo-1,2-dihydroisoquinolin-4-yl)methyl)urea] it was 0.26 µM; in that of `CC(c1c[nH]c(=O)c2ccccc12)N(CC1COC(C)(C)OC1)C(=O)Nc1ccc(F)cc1` (single isomer, unassigned) [Compound 274, 3-(4-Fluorophenyl)-1-((2,2-dimethyl-1,3-dioxan-5-yl)methyl)-1-(1-(1-oxo-1,2-dihydroisoquinolin-4-yl)ethyl)urea], 1.8 µM; in that of `CC(c1c[nH]c(=O)c2cc(F)c(F)cc12)N(C)C(=O)Nc1ccc(F)c(Cl)c1` (single isomer, unassigned) [Compound 278, 3-(3-Chloro-4-fluorophenyl)-1-(1-(6,7-difluoro-1-oxo-1,2-dihydroisoquinolin-4-yl)ethyl)-1-methylurea], 1 µM. Same read-out and setting: the result for `COc1ncc(CNC(=O)Nc2ccc(F)c(C)c2)c2ccccc12` [Compound 7, 1-(4-Fluoro-3-methylphenyl)-3-((1-methoxyisoquinolin-4-yl)methyl)urea] reads 12 µM. Still for that read-out and setting: the result for `CC(C)CN(C(=O)Nc1ccc(F)cc1)C(C)c1cn(CC(F)(F)F)c(=O)c2ccccc12` (racemic) [Compound 235, 3-(4-Fluorophenyl)-1-isobutyl-1-(1-(1-oxo-2-(2,2,2-trifluoroethyl)-1,2-dihydroisoquinolin-4-yl)ethyl)urea] reads 0.21 µM.

Still in this experiment, the particulars now being: Hepatitis B virus, HepDE19, read-out: DE-19bDNA EC50 (μM), HepDE19 assay, inhibition of formation of relaxed circular DNA (rcDNA), bDNA quantitation.
For `CC(c1c[nH]c(=O)c2c(F)c(F)ccc12)N(C)C(=O)N[C@H](C)c1ccccc1` (single isomer, unassigned) [Compound 488], the EC50 turned out to be 9 µM. The same measure, in the same setting: in the case of `CC(c1c[nH]c(=O)c2c(F)c(F)ccc12)N(C)C(=O)Nc1ccccc1F` (single isomer, unassigned) [Compound 457, 1-(1-(7,8-Difluoro-1-oxo-1,2-dihydroisoquinolin-4-yl)ethyl)-3-(2-fluorophenyl)-1-methylurea] it was 0.74 µM.

Staying with this experiment, now noted: read-out: DE-19bDNA EC50; HepDE19 assay, inhibition of formation of rcDNA.
In the case of `CCN(C(=O)Nc1ccc(F)c(Cl)c1)C(c1c[nH]c(=O)c2ccccc12)C1CC1` (single isomer, unassigned) [Compound 46, 3-(3-Chloro-4-fluorophenyl)-1-(cyclopropyl(1-oxo-1,2-dihydroisoquinolin-4-yl)methyl)-1-ethylurea], the 50% effective concentration (EC50) was 23 µM. Consider `CCOCCN(C(=O)Nc1ccc(F)c(Cl)c1)C(C)c1c[nH]c(=O)c2ccccc12` (single isomer, unassigned) [Compound 110, 3-(3-Chloro-4-fluorophenyl)-1-(2-ethoxyethyl)-1-(1-(1-oxo-1,2-dihydroisoquinolin-4-yl)ethyl)urea], for which the EC50 was found to be 0.17 µM.
